Source: PMC11912475 (Journal of Medicinal Chemistry, 2025)

Key:
[1] = target: GluN1-GluN2C NMDAR subtype (Homo sapiens, UniProt Q05586+Q14957); assay: FLIPR/Ca2+ assay, NMDAR GluN1-GluN2C subtype in CHO cells; assay type: cell-based; settings: CHO cells, 10 μM L-glutamate and 10 μM glycine; n.d. = 50% of inhibition could not be reached at the highest concentration used
Protocol: (§1) These compounds were assessed for their effects on specific heterodimeric NMDAR subtypes stably overexpressed in Chinese Hamster Ovary (CHO) cells. The subtypes tested included GluN1-GluN2A, GluN1-GluN2B, GluN1-GluN2C, and GluN1-GluN2D. CHO cells expressing each of the four NMDAR subtypes were incubated with 10 μM L-glutamate, a concentration known to elicit maximal Ca^2+ influx, serving as the stimulus. Intracellular Ca^2+ levels were subsequently measured to determine the extent of NMDAR activation.
(§2) Assay buffer composition was 145 mM NaCl, 5 mM KCl, 2 mM CaCl2, 1 g/Liter D-(+)-glucose, and 20 mM HEPES (pH 7.3 adjusted with NaOH). Cells were plated at a density of 15.000/well in 384 black/clear bottom plates. […] Cells were kept at 30 °C in 5% CO2 incubator for 24 h. Cells were preloaded for 1 h with 2 μM Fluo-4 Ca^2+-sensitive probe, simultaneously with 2.5 mM probenecid, an inhibitor of nonspecific anion transport, and 500 μM ketamine to avoid cytotoxicity. […] Intracellular Ca^2+ level was monitored by FLIPR (excitation wavelength at 470–495 nm, emission wavelength at 515–575 nm) for 10 s before and 5 min after the addition of test items. All test items, including L-glutamate and glycine, were added simultaneously. […] FLIPR data were normalized as 100%, in the presence of 10 μM L-glutamate and 10 μM glycine, while as 0%, in the presence of assay buffer. […] Then, data were normalized by Excel 2013 (Microsoft Office) software, using wells added with 10 μM L-glutamate plus 10 μM glycine (column 23) as high control, and wells added with assay buffer only (column 24) as low control. To assess plate quality, Z′ calculations were performed in Excel. Z′ was calculated according to following equation: Z′ = 1–3(σh + σl)/|μh – μL| where μ and σ are the means and the standard deviations of the means of high (h) and low (l) controls, respectively. Compound concentration–response curves were plotted by Prism 8 GraphPad software, in the different experimental conditions (see Supporting Information). Data were analyzed using least-squares regression fitting, to fit data to a standard four parameters logistic equation using GraphPad Prism10. This regression fitting allowed the calculation of pIC50 and the corresponding SEM.

[2] = target: GluN1-GluN2D NMDAR subtype (Homo sapiens, UniProt O15399+Q05586); assay: FLIPR/Ca2+ assay, NMDAR GluN1-GluN2D subtype in CHO cells; assay type: cell-based; settings: CHO cells, 10 μM L-glutamate and 10 μM glycine; n.d. = 50% of inhibition could not be reached at the highest concentration used
Protocol: as §1, §2

[3] = target: GluN1-GluN2A NMDAR subtype (Homo sapiens, UniProt Q05586+Q12879); assay: FLIPR/Ca2+ assay, NMDAR GluN1-GluN2A subtype in CHO cells; assay type: cell-based; settings: CHO cells, 10 μM L-glutamate and 10 μM glycine; n.d. = 50% of inhibition could not be reached at the highest concentration used
Protocol: as §1, §2

[4] = target: T1, GluN1-GluN2B NMDAR subtype (Homo sapiens, UniProt Q05586+Q13224); assay: FLIPR/Ca2+ assay, NMDAR GluN1-GluN2B subtype in CHO cells; assay type: cell-based; settings: CHO cells, 10 μM L-glutamate and 10 μM glycine; n.d. = 50% of inhibition could not be reached at the highest concentration used
T1 construct: host or cells: NR1-2B-CHO cells, constitutive expression
Protocol: as §1, §2

[5] = target: T2, Norepinephrine transporter NET (Homo sapiens, UniProt P23975); assay: Radioligand displacement binding assay, [125I]RTI-55, NET
T2 construct: host or cells: MDCK

Serotonin 5-HT2A = target: T3, Serotonin 5-HT2A (Homo sapiens, UniProt P28223); assay: Radioligand displacement binding assay, [3H]ketanserin, 5-HT2A
T3 construct: host or cells: CHO-K1

Serotonin 5-HT7 = target: T4, Serotonin 5-HT7 (Homo sapiens, UniProt P34969); assay: Radioligand displacement binding assay, [3H]LSD, 5-HT7
T4 construct: host or cells: CHO-K1

[6] = target: T5, Serotonin transporter SERT (Homo sapiens, UniProt P31645); assay: Radioligand displacement binding assay, [3H]paroxetine, SERT
T5 construct: host or cells: HEK-293

Histamine H1 = target: T6, Histamine H1 (Homo sapiens, UniProt P35367); assay: Radioligand displacement binding assay, [3H]pyrilamine, H1; settings: for displacement at the histamine H1 receptor, in words: concentration not given
T6 construct: host or cells: CHO-K1

Serotonin 5-HT1A = target: T7, Serotonin 5-HT1A (Homo sapiens, UniProt P08908); assay: Radioligand displacement binding assay, [3H]8-OH-DPAT, 5-HT1A
T7 construct: host or cells: CHO-K1
T7 sequence (P08908 1-422): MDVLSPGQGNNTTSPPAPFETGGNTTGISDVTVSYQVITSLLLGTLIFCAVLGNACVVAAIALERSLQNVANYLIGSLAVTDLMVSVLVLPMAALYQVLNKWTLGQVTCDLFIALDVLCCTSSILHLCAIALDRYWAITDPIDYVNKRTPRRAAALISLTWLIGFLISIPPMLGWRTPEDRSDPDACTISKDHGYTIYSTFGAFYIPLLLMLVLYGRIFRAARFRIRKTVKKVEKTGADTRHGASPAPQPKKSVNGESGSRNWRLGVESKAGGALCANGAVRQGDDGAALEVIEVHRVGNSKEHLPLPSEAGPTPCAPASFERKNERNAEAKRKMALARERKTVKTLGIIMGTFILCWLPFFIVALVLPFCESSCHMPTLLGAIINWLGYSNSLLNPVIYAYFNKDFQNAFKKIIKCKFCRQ

Muscarinic M5 = target: T8, Muscarinic M5 (Homo sapiens, UniProt P08912); assay: Radioligand displacement binding assay, [3H]N-methylscopolamine, M5
T8 construct: host or cells: CHO-K1
T8 sequence (P08912 1-532): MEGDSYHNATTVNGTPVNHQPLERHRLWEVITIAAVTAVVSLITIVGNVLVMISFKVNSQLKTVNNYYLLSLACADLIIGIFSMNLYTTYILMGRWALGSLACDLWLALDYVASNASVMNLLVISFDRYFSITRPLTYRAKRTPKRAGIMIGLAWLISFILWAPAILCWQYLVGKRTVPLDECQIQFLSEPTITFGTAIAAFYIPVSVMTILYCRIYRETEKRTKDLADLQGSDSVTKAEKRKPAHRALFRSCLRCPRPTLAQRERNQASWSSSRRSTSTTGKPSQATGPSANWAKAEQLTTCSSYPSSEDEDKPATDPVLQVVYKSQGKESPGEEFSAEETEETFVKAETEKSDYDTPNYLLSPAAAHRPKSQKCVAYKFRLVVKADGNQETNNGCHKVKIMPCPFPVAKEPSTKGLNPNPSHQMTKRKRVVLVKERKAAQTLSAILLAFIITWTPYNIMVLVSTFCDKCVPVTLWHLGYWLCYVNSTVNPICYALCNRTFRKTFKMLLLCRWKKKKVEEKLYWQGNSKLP

Sigma σ1 = target: T9, Sigma σ1 (Homo sapiens, UniProt Q99720); assay: Radioligand displacement binding assay, [3H]pentazocine, sigma σ1
T9 construct: Sigma σ1; Source: Human Jurkat cells; host or cells: Jurkat

Serotonin 5-HT5A = target: T10, Serotonin 5-HT5A (Homo sapiens, UniProt P47898); assay: Radioligand displacement binding assay, [3H]LSD, 5-HT5A
T10 construct: host or cells: CHO-K1

Serotonin 5-HT2C = target: T11, Serotonin 5-HT2C (Homo sapiens, UniProt P28335); assay: Radioligand displacement binding assay, [3H]mesulergine, 5-HT2C
T11 construct: host or cells: CHO-K1
T11 sequence (P28335 33-458): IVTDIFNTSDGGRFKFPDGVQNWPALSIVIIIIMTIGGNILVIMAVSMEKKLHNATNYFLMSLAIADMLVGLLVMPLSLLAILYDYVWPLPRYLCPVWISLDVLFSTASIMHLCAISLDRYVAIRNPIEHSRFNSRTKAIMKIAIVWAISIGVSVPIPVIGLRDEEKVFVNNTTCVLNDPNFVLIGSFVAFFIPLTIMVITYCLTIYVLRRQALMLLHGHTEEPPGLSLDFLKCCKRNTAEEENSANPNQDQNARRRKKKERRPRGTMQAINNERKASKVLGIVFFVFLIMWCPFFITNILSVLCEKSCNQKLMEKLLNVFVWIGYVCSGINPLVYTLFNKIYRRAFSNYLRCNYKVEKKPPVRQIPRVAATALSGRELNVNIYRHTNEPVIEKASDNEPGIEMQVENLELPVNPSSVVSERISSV

μ opioid receptor (MOP) = target: T12, μ opioid receptor (MOP) (Homo sapiens, UniProt P35372); assay: biochemical; assay type: binding; settings: read-out: % inhibition of binding, MOP
T12 construct: host or cells: CHO-K1

[7] = tested on: Glutamate, NMDA, Phencyclidine binding site; assay: Radioligand displacement binding assay, [3H]TCP, NMDA; parameters: species or system Wistar rat

T10 sequence (P47898 whole entry): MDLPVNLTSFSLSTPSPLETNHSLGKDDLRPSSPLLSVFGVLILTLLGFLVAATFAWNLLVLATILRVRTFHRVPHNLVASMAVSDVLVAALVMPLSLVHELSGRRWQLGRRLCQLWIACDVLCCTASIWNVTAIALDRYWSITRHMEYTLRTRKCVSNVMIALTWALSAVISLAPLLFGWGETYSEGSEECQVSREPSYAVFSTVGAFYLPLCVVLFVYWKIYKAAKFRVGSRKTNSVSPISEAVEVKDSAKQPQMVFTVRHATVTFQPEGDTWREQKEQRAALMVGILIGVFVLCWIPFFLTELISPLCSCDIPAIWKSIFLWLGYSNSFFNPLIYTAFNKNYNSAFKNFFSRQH
T4 sequence (P34969 whole entry): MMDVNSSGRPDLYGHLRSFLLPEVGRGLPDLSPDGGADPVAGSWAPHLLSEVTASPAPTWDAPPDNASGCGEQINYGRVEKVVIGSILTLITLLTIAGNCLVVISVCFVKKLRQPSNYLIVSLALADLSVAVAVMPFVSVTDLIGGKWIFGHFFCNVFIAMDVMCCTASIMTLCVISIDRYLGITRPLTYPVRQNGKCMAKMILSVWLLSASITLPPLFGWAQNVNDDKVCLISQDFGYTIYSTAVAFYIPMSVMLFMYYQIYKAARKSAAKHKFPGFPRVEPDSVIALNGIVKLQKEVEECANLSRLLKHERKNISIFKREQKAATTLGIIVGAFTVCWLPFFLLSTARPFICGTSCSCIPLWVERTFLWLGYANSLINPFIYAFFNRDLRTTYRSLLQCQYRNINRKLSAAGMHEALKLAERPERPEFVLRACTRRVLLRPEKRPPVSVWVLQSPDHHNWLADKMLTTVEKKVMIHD
T2 sequence (P23975 whole entry): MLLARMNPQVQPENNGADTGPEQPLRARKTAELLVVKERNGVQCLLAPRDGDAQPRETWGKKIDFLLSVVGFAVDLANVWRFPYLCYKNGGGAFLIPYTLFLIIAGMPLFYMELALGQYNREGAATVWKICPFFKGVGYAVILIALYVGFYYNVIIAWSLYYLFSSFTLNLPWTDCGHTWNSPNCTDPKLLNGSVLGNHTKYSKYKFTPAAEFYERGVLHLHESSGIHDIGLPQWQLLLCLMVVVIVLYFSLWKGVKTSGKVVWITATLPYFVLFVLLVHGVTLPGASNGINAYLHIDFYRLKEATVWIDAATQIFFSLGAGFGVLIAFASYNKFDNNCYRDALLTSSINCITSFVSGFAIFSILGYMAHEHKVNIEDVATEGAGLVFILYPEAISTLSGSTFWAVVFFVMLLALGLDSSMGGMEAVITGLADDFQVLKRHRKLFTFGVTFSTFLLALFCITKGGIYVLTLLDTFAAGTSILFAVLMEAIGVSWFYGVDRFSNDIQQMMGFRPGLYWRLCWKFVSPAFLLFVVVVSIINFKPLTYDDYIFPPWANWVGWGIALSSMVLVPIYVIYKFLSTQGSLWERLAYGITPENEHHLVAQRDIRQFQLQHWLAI
T9 sequence (Q99720 whole entry): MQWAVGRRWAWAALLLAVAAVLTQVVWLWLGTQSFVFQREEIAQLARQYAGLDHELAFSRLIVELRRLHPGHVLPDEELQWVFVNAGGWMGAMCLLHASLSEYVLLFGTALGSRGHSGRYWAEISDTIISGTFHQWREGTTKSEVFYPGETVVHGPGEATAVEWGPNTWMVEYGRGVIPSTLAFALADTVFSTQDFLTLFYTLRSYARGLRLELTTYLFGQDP
T6 sequence (P35367 whole entry): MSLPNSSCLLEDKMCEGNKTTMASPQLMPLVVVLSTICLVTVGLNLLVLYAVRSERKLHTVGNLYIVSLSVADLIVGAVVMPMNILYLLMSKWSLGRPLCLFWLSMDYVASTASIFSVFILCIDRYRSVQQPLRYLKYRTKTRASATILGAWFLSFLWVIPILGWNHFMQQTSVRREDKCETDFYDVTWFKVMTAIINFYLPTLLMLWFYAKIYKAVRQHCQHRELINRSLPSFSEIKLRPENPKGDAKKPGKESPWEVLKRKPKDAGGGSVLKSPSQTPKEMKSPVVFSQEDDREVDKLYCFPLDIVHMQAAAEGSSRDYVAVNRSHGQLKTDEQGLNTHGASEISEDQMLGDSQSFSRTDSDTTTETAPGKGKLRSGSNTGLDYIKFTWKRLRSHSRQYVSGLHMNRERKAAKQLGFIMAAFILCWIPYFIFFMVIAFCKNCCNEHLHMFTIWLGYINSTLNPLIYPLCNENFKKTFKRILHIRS
T3 sequence (P28223 whole entry): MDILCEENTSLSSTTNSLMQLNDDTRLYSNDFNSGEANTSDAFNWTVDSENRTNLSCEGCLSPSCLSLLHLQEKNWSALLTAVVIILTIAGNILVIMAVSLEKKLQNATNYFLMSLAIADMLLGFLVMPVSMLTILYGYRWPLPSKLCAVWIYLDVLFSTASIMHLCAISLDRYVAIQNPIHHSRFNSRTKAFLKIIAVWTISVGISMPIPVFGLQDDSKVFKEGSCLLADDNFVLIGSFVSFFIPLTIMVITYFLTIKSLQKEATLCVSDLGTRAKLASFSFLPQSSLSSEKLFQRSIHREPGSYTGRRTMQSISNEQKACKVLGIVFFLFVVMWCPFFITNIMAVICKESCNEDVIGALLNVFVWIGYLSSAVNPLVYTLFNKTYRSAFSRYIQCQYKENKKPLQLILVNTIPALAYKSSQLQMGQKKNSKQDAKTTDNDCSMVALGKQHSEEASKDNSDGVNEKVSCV
T5 sequence (P31645 whole entry): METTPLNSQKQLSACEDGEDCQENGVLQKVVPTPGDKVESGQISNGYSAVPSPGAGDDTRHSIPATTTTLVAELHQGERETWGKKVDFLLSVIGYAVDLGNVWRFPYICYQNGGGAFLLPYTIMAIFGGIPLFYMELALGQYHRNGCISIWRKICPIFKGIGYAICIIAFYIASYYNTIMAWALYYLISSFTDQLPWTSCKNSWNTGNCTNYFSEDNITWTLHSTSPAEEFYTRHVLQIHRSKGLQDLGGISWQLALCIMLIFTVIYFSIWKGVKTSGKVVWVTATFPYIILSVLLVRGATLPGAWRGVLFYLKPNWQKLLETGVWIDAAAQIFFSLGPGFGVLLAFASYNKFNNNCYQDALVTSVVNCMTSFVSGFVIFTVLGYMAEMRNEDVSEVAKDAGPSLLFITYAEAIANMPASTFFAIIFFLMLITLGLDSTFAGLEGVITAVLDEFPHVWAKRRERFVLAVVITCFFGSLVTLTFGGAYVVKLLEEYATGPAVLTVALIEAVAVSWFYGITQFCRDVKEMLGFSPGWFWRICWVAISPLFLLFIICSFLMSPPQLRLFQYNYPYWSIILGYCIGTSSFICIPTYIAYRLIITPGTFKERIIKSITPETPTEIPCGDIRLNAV
Sequence of GluN1-GluN2D NMDAR subtype (O15399 28-1336, other chains not shown): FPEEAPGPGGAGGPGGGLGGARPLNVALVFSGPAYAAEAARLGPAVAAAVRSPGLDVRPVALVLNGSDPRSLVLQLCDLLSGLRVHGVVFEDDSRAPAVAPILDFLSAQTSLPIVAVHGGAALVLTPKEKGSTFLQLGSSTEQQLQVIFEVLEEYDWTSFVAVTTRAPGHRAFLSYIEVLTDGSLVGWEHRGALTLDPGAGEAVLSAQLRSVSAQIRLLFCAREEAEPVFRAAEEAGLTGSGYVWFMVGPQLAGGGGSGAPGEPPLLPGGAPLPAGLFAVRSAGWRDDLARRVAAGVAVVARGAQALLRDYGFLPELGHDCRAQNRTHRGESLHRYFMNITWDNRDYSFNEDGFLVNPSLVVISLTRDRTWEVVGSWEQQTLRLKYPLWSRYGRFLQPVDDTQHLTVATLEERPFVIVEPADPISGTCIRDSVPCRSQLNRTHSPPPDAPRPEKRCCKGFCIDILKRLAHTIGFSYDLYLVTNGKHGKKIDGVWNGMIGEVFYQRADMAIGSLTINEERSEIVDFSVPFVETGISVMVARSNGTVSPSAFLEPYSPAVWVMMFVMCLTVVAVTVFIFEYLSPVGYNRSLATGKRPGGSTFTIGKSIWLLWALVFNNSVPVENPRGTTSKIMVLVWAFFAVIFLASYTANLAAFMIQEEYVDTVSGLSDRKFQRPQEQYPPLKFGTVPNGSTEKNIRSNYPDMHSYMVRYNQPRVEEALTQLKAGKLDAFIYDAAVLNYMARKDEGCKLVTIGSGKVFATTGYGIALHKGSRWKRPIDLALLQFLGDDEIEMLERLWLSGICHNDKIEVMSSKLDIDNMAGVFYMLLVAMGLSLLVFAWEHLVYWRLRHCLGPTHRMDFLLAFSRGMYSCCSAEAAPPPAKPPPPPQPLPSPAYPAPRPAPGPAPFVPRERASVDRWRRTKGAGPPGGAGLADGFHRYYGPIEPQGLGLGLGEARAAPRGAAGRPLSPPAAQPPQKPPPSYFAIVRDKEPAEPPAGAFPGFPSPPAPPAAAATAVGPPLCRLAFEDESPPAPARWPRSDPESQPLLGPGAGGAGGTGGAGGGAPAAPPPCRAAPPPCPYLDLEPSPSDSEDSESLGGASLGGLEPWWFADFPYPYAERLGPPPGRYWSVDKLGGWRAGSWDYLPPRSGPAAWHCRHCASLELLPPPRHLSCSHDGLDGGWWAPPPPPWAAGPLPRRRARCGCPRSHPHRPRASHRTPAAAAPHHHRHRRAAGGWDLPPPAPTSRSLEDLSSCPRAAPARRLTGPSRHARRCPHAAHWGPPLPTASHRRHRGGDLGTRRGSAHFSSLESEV
T12 sequence (P35372 whole entry): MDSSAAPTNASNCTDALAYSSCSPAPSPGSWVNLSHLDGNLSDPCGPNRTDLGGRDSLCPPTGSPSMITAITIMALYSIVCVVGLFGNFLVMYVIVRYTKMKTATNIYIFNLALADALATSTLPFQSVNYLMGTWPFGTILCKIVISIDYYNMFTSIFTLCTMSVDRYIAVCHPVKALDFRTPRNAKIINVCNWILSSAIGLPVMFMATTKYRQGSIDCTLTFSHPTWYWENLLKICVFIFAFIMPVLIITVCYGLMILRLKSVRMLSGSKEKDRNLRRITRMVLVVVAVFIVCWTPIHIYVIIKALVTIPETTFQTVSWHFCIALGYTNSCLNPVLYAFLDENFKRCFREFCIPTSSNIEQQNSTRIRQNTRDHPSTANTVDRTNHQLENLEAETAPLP

Compound | pIC50 (mean ± SEM) GluN1-GluN2C [1] | pIC50 (mean ± SEM) GluN1-GluN2D [2] | pIC50 (mean ± SEM) GluN1-GluN2A [3] | inhibition at 1 µM [5] [%] | inhibition at 10 µM [5] [%] | inhibition at 0.3 µM (Serotonin 5-HT2A) [%] | inhibition at 3 µM (Serotonin 5-HT2A) [%] | inhibition at 1 µM (Serotonin 5-HT7) [%] | inhibition at 10 µM (Serotonin 5-HT7) [%] | inhibition at 1 µM [6] [%] | inhibition at 10 µM [6] [%] | inhibition at 10 µM (Histamine H1) [%] | inhibition at 30 µM (Histamine H1) [%] | displacement at the histamine H1 receptor, in words (Histamine H1) | inhibition at 0.3 µM (Serotonin 5-HT1A) [%] | inhibition at 3 µM (Serotonin 5-HT1A) [%] | inhibition at 1 µM (Muscarinic M5) [%] | inhibition at 10 µM (Muscarinic M5) [%] | inhibition at 0.3 µM (Sigma σ1) [%] | inhibition at 3 µM (Sigma σ1) [%] | also measured
CCC1=[N+](C)[C@H](C)CC1(c1ccccc1)c1ccccc1.[Cl-] [(R)-EDDP, 2-Ethyl-1,5-dimethyl-3,3-diphenyl-3,4-dihydro-5H-pyrrolium chloride] | 4.3 ± 0.056 | 4.3 ± 0.060 | – | – | – | – | – | – | – | – | – | – | – | – | – | – | – | – | – | – | –
CC[C@@H](O)C(C[C@H](C)N(C)C)(c1ccccc1)c1ccccc1 [(3R,6S)-ML, (3R,6S)-6-(dimethylamino)-4,4-diphenylheptan-3-ol] | – | – | 4.0 ± 0.23 | – | – | – | – | – | – | – | – | – | – | – | – | – | – | – | – | – | –
C[C@]12N[C@H](Cc3ccccc31)c1ccccc12 [(+)-MK-801, reference compound] | 6.2 ± 0.064 | 6.1 ± 0.58 | – | – | – | – | – | – | – | – | – | – | – | – | – | – | – | – | – | – | pIC50 (mean ± SEM) GluN1-GluN2B [4]: 7.2 ± 0.067
CCC(=O)C(C[C@H](C)N(C)C)(c1ccccc1)c1ccccc1 [(S)-methadone, 6-(Dimethylamino)-4,4-diphenylheptan-3-one, reference compound] | – | – | – | 5 | 17 | 22 | 72 | 12 | 58 | 21 | 74 | 50 | 73 | significant displacement percentages | -2 | 2 | 25 | 73 | 23 | 70 | activity on 5-HT2A, in words (Serotonin 5-HT2A; concentration not given): appreciable activity; inhibition at 1 µM (Serotonin 5-HT5A): 24%; inhibition at 10 µM (Serotonin 5-HT5A): 70%; inhibition at 0.3 µM (Serotonin 5-HT2C): 30%; inhibition at 3 µM (Serotonin 5-HT2C): 77%
CCC1=N[C@H](C)CC1(c1ccccc1)c1ccccc1 [(R)-EMDP, 5-Ethyl-2-methyl-4,4-diphenyl-3,4-dihydro-2H-pyrrole] | – | – | 4.8 ± 0.088 | -5 | 27 | 4 | 14 | 0 | 8 | 3 | 7 | 24 | 62 | significant displacement percentages | 0 | 7 | 6 | 3 | 11 | 49 | inhibition at 0.3 µM (μ opioid receptor (MOP); 0.3 μM): -4%; inhibition at 3 µM (μ opioid receptor (MOP); 3 μM): 8%; % inhibition of binding, NMDA ([7]; 1 μM): 12%; % inhibition of binding, NMDA ([7]; 10 μM): 4%; inhibition at 1 µM (Serotonin 5-HT5A): 1%; inhibition at 10 µM (Serotonin 5-HT5A): 0%; inhibition at 0.3 µM (Serotonin 5-HT2C): 2%; inhibition at 3 µM (Serotonin 5-HT2C): 7%
